{
  "source": "patent US7153888B2",
  "about": "“Stabilization of benzoyl peroxide in solution” (Alpharx Inc., priority 2004, dated 2006)",
  "origin": "cited, not measured here",
  "key": {"[1]": {"assay": "not given", "remark": "listed apart in the source"}},
  "data": [
    {"smiles": "O=C(OOC(=O)c1ccccc1)c1ccccc1", "note": "[benzoyl peroxide]", "values": [
      {"measurement": "solubility", "setting": "common solvents such as alcohol, PEG and propylene glycol", "value": "below 20 mg/ml"},
      {"measurement": "drop of solubility", "setting": "water-miscible solvent, water content grows from 0 to 25%", "value": "2–4 orders of magnitude"},
      {"measurement": "stability by solvent", "setting": "[1]; in PEG 400", "value": "least stable"},
      {"measurement": "time until destroyed", "setting": "[1]; in the presence of ethanol and acidic chelating agents, stored at 30° C. or 40° C.", "value": "≤ 1", "unit": "month"},
      {"measurement": "first-order K value of decomposition", "setting": "[1]; polyethylene glycol ointment base, 24° C.", "value": 0.028, "unit": "day⁻¹"},
      {"measurement": "half-life (50% content decrease)", "setting": "[1]; pure BP in different solvents, room temperature", "value": "151 to 6380", "unit": "h"},
      {"measurement": "potency of benzoyl peroxide suspension (decrease from 5%)", "setting": "[1]; suspension in polyethylene glycol ointment base, 50° C., 5 days", "value": "less than 1%"}
    ]}
  ]
}
